Results reported in paper PMC8203801 (Communications Biology, 2021).

Molecular target: HSA (Homo sapiens, UniProt P02768)
Test: Dansylsarcosine (DS) binding to prepared HSA, fluorescence titration
Conditions: range over samples
Method: Prepared HSA was diluted with phosphate-buffered saline (PBS) to a final concentration of 10 µmol/L, and 100 µL of this dilution was applied to a flat-bottomed, half area, polystyrene, black 96-well plate (Greiner Bio-One, Kremsmuenster, Austria). […] The resulting fluorescence was measured using FLUOstar OPTIMA microplate reader (BMG LABTECH, Ortenberg, Germany). Fluorescence excitation and emission detection were performed at 355 nm and 460 nm, respectively. Binding curves were fitted applying non-linear regression using GraphPad Prism Software (Version 5; GraphPad Software, San Diego, CA, USA) after subtraction of non-specific binding. Dissociation constants (Kd) were calculated at DS concentrations, where half-maximal fluorescence was reached.

Sequence of HSA (P02768 25-609): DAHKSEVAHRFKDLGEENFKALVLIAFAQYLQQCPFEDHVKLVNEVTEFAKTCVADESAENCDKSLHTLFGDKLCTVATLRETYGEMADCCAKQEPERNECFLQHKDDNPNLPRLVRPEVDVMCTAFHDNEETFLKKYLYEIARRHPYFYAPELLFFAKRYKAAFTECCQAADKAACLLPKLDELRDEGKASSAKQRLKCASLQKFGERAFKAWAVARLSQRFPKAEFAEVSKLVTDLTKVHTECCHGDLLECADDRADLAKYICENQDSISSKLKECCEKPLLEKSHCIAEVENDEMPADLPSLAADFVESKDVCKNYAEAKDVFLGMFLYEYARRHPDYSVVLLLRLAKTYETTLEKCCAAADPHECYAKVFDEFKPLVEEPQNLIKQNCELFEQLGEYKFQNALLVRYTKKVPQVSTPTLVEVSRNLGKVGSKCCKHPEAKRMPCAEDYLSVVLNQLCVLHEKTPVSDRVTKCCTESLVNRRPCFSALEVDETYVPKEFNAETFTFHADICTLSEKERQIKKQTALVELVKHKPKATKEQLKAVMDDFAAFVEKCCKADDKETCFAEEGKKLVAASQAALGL

## CN(C)c1cccc2c(S(=O)(=O)N(C)CC(=O)O)cccc12 [dansylsarcosine]
Binding of dansylsarcosine to HSA of healthy donors
  Kd: 12 to 18 µM
Binding of dansylsarcosine to patients' HSA (chronic liver failure)
  Kd: 13 to 28 µM
